Assay results as given in article PMC3433560 (Bioorganic & medicinal chemistry letters, 2012).

Target: KCNQ1 channels (Homo sapiens, UniProt P51787)
Assay: cell-based

KCNQ1 channels, sequence (P51787 whole entry): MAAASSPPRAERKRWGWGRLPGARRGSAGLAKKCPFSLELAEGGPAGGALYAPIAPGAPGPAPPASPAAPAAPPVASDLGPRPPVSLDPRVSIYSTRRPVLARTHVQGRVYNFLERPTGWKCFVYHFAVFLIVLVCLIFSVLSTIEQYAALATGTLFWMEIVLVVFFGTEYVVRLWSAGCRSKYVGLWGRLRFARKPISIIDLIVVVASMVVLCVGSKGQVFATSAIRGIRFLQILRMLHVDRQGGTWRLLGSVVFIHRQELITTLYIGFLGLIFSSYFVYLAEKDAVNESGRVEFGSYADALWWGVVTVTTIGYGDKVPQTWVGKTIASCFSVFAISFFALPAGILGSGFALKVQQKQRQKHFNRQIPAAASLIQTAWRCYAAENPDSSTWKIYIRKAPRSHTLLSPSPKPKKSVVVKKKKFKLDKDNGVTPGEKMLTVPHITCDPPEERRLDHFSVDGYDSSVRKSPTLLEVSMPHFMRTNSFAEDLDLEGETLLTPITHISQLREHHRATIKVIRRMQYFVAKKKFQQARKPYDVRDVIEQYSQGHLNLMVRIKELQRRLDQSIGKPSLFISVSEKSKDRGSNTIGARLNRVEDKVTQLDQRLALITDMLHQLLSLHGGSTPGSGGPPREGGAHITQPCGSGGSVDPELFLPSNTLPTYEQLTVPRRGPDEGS

COc1ccc(-c2csc(NC(=O)C3CCCCN3S(=O)(=O)c3ccccc3)n2)cc1 (stereo not shown) [compound 5]
EC50: 0.66 µM
